# In patent US6544989B2, “Benzazoles: benzoxazole, benzthiazole and benzimidazole derivatives” (Syngenta Limited, priority 1998, dated 2003):
# “And” between values parts separate entries of the source, which are not always exact repeats. Equal entries are not always repeated. Where two headings read alike, the source gives them in different places. Marks after values point to notes of the source that are not given here.
# Legend:
# Plasmopara viticola [1] = assay: Fungicidal test, Plasmopara viticola (PLASVI) on vines, PRCO; type: in vivo
# [2] = test system: Phytophthora infestans lycopersici; type: in vivo
# Botrytis cinerea = assay: Fungicidal test, Botrytis cinerea (BOTRCI) on tomatoes, PRCO; type: in vivo; conditions: METHOD 2 (unbanded)
# Venturia inaequalis = assay: Fungicidal test, Venturia inaequalis (VENTIN) on apples, PRCO; type: in vivo; conditions: METHOD 2 (unbanded)
# [3] = test system: Erysiphe graminis f.sp. tritici; assay: Fungicidal test, Erysiphe graminis f.sp. tritici (ERYSGT) on wheat, PRCO; type: in vivo; conditions: for ERYSGT 6 hr Prot/Foir PRCO: METHOD 1 (values marked *)
# Septoria nodorum [4] = assay: Fungicidal test, Septoria nodorum (LEPTNO) on wheat, PRCO; type: in vivo; conditions: METHOD 2 (unbanded)
# Puccinia recondita = assay: Fungicidal test, Puccinia recondita (PUCCRT) on wheat, PRCO; type: in vivo
# Pyricularia oryzae = type: in vivo; conditions: METHOD 2 (unbanded)
# Musca domestica = conditions: 500 ppm by weight; knockdown assessed 15 minutes after treatment
# Protocol: (§1) The activities of individual compounds of formula (I) were determined using a variety of pests. With the exception of nematodes, the pests were treated with a liquid composition containing 500 parts per million (ppm) by weight of a compound unless otherwise stated. Each composition was made by dissolving the compound in an acetone and ethanol (50:50 by volume) mixture and diluting the solution with water containing 0.05% by volume of a wetting agent, SYNPERONIC NP8, until the liquid composition contained the required concentration of the compound.
# The test procedure adopted with regard to each pest, except nematodes, was essentially the same and composed supporting a number of the pests on a medium which was usually a substrate, a host plant or a foodstuff on which the pests feed, and treating either or both the medium and the pests with a composition. Pest mortality was assessed usually between three and five days after treatment Knockdown of housefly (Musca domestica) was assessed 15 minutes after treatment
# Meloidogyne incognita = assay: Nematode test, J2 infective juveniles of Meloidogyne incognita, mortality; conditions: 12.5 ppm; J2 infective juveniles suspended in solution; mortality after three days
# Protocol: as §1
# The test procedure for nematodes involved dissolving the compound in an acetone and ethanol (50:50 by volume) mixture and diluting the solution with water to obtain a final concentration of the compound of 12.5 ppm. J2 infective juveniles of Meloidogyne incognita were suspended in the solution in a glass vial and mortality assessed after a period of three days.
# Uncinula necator = assay: Fungicidal test, Uncinula necator (UNCINE) on vines, PRCO; type: in vivo; conditions: METHOD 2 (unbanded)
# Rhizoctonia solani [5] = assay: Fungicidal test, Rhizoctonia solani (RHIZSO) on rice, PRCO; type: in vivo; conditions: METHOD 2 (unbanded)
# Plasmopara viticola [6] = assay: Synergy test of two-compound mixtures, Plasmopara viticola (PLASVI) on vines, observed and expected PRCO; type: in vivo; conditions: Disease on untreated: 95%
# Septoria nodorum [7] = assay: Synergy test of two-compound mixtures, Septoria nodorum (LEPTNO) on wheat, observed and expected PRCO; type: in vivo
# Rhizoctonia solani [8] = assay: Synergy test of two-compound mixtures, Rhizoctonia solani (RHIZSO) on turf, observed and expected PRCO; type: in vivo; conditions: assessed 5 days after treatment
smiles,measurement,setting,value
Cc1nc2cc(CC(=O)Nc3snc(C)c3Cl)ccc2o1 [2(A3)],PLASVI 1 d Prot/Foir PRCO,Plasmopara viticola [1]; METHOD 1 (values marked *),0*
same,PHYTIN 1 d Prot/Foir PRCO,[2]; METHOD 1 (values marked *),100*
same,BOTRCI 1 d Prot/Foir PRCO,Botrytis cinerea,0
same,VENTIN 1 d Prot/Foir PRCO,Venturia inaequalis,97
same,ERYSGT 6 hr Prot/Foir PRCO,[3],100*
same,LEPTNO 1 d Prot/Foir PRCO,Septoria nodorum [4],21
same,PUCCRT 1 d Prot/Foir PRCO,Puccinia recondita; METHOD 1 (values marked *),100*
same,PYRIOR 1 d Prot/Foir PRCO,Pyricularia oryzae,47 and 92
same,"MUSCDO AC = Musca domestica (knockdown), score",Musca domestica,0 (0 indicates less than 40% mortality)
same,"MELGIN = Meloidogyne incognita, grading of mortality (score)",Meloidogyne incognita,5 (5 indicates 40-79% mortality)
CCCc1nc2cc(CC(=O)Nc3snc(C)c3Cl)ccc2o1 [4(A3)],PLASVI 1 d Prot/Foir PRCO,Plasmopara viticola [1]; METHOD 2 (unbanded),34
same,PHYTIN 1 d Prot/Foir PRCO,[2]; METHOD 1 (values marked *),100*
same,BOTRCI 1 d Prot/Foir PRCO,Botrytis cinerea,49
same,ERYSGT 6 hr Prot/Foir PRCO,[3],100*
same,LEPTNO 1 d Prot/Foir PRCO,Septoria nodorum [4],50
same,PUCCRT 1 d Prot/Foir PRCO,Puccinia recondita; METHOD 1 (values marked *),100*
same,PYRIOR 1 d Prot/Foir PRCO,Pyricularia oryzae,90 and 81
same,"MUSCDO AC = Musca domestica (knockdown), score",Musca domestica,9 (9 indicates 80-100% mortality)
same,"MELGIN = Meloidogyne incognita, grading of mortality (score)",Meloidogyne incognita,9 (9 indicates 80-100% mortality)
Cc1nsc(NC(=O)Cc2ccc3oc(C(C)(C)C)nc3c2)c1Cl [9(A3)],PLASVI 1 d Prot/Foir PRCO,Plasmopara viticola [1]; METHOD 1 (values marked *),100*
same,UNCINE 1 d Prot/Foir PRCO,Uncinula necator,100
same,PHYTIN 1 d Prot/Foir PRCO,[2]; METHOD 2 (unbanded),100
same,BOTRCI 1 d Prot/Foir PRCO,Botrytis cinerea,3
same,VENTIN 1 d Prot/Foir PRCO,Venturia inaequalis,33
same,ERYSGT 6 hr Prot/Foir PRCO,[3],100*
same,LEPTNO 1 d Prot/Foir PRCO,Septoria nodorum [4],55
same,PUCCRT 1 d Prot/Foir PRCO,Puccinia recondita; METHOD 2 (unbanded),100
same,PYRIOR 1 d Prot/Foir PRCO,Pyricularia oryzae,100
same,RHIZSO 1 d Prot/Foir PRCO,Rhizoctonia solani [5],29
same,"MUSCDO AC = Musca domestica (knockdown), score",Musca domestica,9 (9 indicates 80-100% mortality)
same,"MELGIN = Meloidogyne incognita, grading of mortality (score)",Meloidogyne incognita,0 (0 indicates less than 40% mortality)
Cc1nsc(NC(=O)Cc2ccc3oc(-c4cc(Cl)cc(Cl)c4)nc3c2)c1Cl [261(A3)],PLASVI 1 d Prot/Foir PRCO,Plasmopara viticola [1]; METHOD 2 (unbanded),25
same,UNCINE 1 d Prot/Foir PRCO,Uncinula necator,17
same,PHYTIN 1 d Prot/Foir PRCO,[2]; METHOD 2 (unbanded),0
same,VENTIN 1 d Prot/Foir PRCO,Venturia inaequalis,0
same,ERYSGT 1 d Prot/Foir PRCO,"[3]; 1 d Prot/Foir, METHOD 2 (unbanded)",19
same,LEPTNO 1 d Prot/Foir PRCO,Septoria nodorum [4],−7
same,PUCCRT 1 d Prot/Foir PRCO,Puccinia recondita; METHOD 2 (unbanded),3
same,PYRIOR 1 d Prot/Foir PRCO,Pyricularia oryzae,31
same,RHIZSO 1 d Prot/Foir PRCO,Rhizoctonia solani [5],0
same,"MUSCDO AC = Musca domestica (knockdown), score",Musca domestica,0 (0 indicates less than 40% mortality)
same,"MELGIN = Meloidogyne incognita, grading of mortality (score)",Meloidogyne incognita,0 (0 indicates less than 40% mortality)
"CO/C=C(/C(=O)OC)c1ccccc1Oc1cc(Oc2ccccc2C#N)ncn1 [azoxystrobin, reference compound]",% disease control Observed,Plasmopara viticola [6]; azoxystrobin 0.2 mg/l alone,61%
same,% disease control Observed,"Septoria nodorum [7]; Test 1 (Disease on untreated: 52%), azoxystrobin 0.1 mg/l alone",41%
same,% disease control Observed,"Septoria nodorum [7]; Test 1 (Disease on untreated: 52%), azoxystrobin 0.25 mg/l alone",37%
same,% disease control Observed,"Septoria nodorum [7]; Test 2 (Disease on untreated: 64%), azoxystrobin 0.1 mg/l alone",48%
same,% disease control Observed,"Septoria nodorum [7]; Test 2 (Disease on untreated: 64%), azoxystrobin 0.25 mg/l alone",71%
same,% disease control Observed,"Rhizoctonia solani [8]; Test 1, azoxystrobin 0.1 mg/l alone",38.25%
same,% disease control Observed,"Rhizoctonia solani [8]; Test 1, azoxystrobin 0.3 mg/l alone",71.25%
same,% disease control Observed,"Rhizoctonia solani [8]; Test 2, azoxystrobin 0.1 mg/l alone",19.7%
CSC1=N[C@@](C)(c2ccccc2)C(=O)N1Nc1ccccc1 [fenamidone],% disease control Observed,Plasmopara viticola [6]; fenamidone 0.2 mg/l alone,65%
O=[N+]([O-])c1cc(C(F)(F)F)c(Cl)c([N+](=O)[O-])c1Nc1ncc(C(F)(F)F)cc1Cl [fluazinam],% disease control Observed,Plasmopara viticola [6]; fluazinam 1 mg/l alone,4%
same,% disease control Observed,"Rhizoctonia solani [8]; Test 1, fluazinam 3 mg/l alone",15%
same,% disease control Observed,"Rhizoctonia solani [8]; Test 1, fluazinam 10 mg/l alone",48.75%
same,% disease control Observed,"Rhizoctonia solani [8]; Test 2, fluazinam 10 mg/l alone",18.4%
